Data: patent publication EP0908457B1, “3-(1,2-benzisothiazol- and isoxazol-5-Y1)-2,4(1H,3H)-pyrimidinedione or thione and 3-(1,2-benzisothiazol- and isoxazol-5-y1)-4(3H)-pyrimidinone or thione herbicidal agents” (BASF AKTIENGESELLSCHAFT, priority 1997, dated 1999)

Columns and labels:
[1] = tested on: Echinochloa oryzoides (Ard.) Fritsch.; assay: Preemergence weed control under flooded paddy conditions, ECHORC (Watergrass (Calif.)); type: in vivo; conditions: flooded paddy, rated three to four weeks after treatment
[2] = tested on: Sagittaria pygmaea, L.; assay: Preemergence weed control under flooded paddy conditions, SAGPY (Arrowhead (Pygmaea)); type: in vivo; conditions: flooded paddy, rated three to four weeks after treatment
[3] = tested on: Oryza sativa, (L.) Tebonnet; assay: Rice tolerance to post-transplant applications under flooded paddy conditions (Example 187), ORYSAT (Rice, Tebonnet); conditions: rated three to four weeks after treatment
[4] = tested on: Cyperus iria; assay: Preemergence weed control under flooded paddy conditions, CYPIR (Rice Flatsedge); type: in vivo; conditions: flooded paddy, rated three to four weeks after treatment
[5] = tested on: Monochoria vaginalis, Presl.; assay: Preemergence weed control under flooded paddy conditions, MOOVA (Monochoria); type: in vivo; conditions: flooded paddy, rated three to four weeks after treatment
[6] = Rate 0.0320 kg/ha, preemergence weeds
[7] = Rate 0.0620 kg/ha, preemergence weeds
[8] = Rate 0.1250 kg/ha, preemergence weeds
[9] = Rate 0.2500 kg/ha, preemergence weeds
[10] = Rate 0.0320 kg/ha, preemergence
[11] = Rate 0.0620 kg/ha, preemergence
[12] = Rate 0.1250 kg/ha, preemergence
[13] = Rate 0.2500 kg/ha, preemergence
[14] = Rate 0.5000 kg/ha, preemergence
Also: meaning of each grade not given here.

## Cn1c(C(F)(F)F)cc(=O)n(-c2ccc3snc(C(=O)Oc4ccc(F)cc4)c3c2)c1=O [Example 320, 1,2-Benzisothiazole-3-carboxylic acid, 5-[3,6-dihydro-3-methyl-2,6-dioxo-4-(trifluoromethyl)-1(2H)-pyrimidinyl]-, p-fluorophenyl ester]
[1]; [6]
  herbicidal effect rating, ECHORC: 0.0
[1]; [7]
  herbicidal effect rating, ECHORC: 0.0
[1]; [8]
  herbicidal effect rating, ECHORC: 0.0
[1]; [9]
  herbicidal effect rating, ECHORC: 2.5
[2]; [6]
  herbicidal effect rating, SAGPY: 1.0
[2]; [7]
  herbicidal effect rating, SAGPY: 2.5
[2]; [8]
  herbicidal effect rating, SAGPY: 2.5
[2]; [9]
  herbicidal effect rating, SAGPY: 5.0
[3]; Rate 0.0320 kg/ha
  herbicidal effect rating ORYSAT: 1.5
[3]; Rate 0.0620 kg/ha
  herbicidal effect rating ORYSAT: 2.0
[3]; Rate 0.1250 kg/ha
  herbicidal effect rating ORYSAT: 2.0
[3]; Rate 0.2500 kg/ha
  herbicidal effect rating ORYSAT: 2.5
[4]; [6]
  herbicidal effect rating, CYPIR: 0.0
[4]; [7]
  herbicidal effect rating, CYPIR: 2.0
[4]; [8]
  herbicidal effect rating, CYPIR: 5.5
[4]; [9]
  herbicidal effect rating, CYPIR: 8.0
[5]; [6]
  herbicidal effect rating, MOOVA: 0.0
[5]; [7]
  herbicidal effect rating, MOOVA: 0.0
[5]; [8]
  herbicidal effect rating, MOOVA: 3.0
[5]; [9]
  herbicidal effect rating, MOOVA: 9.0

## COc1ccc(O)c(-c2nsc3ccc(-n4c(=O)cc(C(F)(F)F)n(C)c4=O)cc23)c1 [Example 361, 2,4(1H,3H)-Pyrimidinedione, 3-[3-(2-hydroxy-5-methoxyphenyl)-1,2-benzisothiazol-5-yl]-1-methyl-6-(trifluoromethyl)-]
[1]; [10]
  herbicidal effect rating, ECHORC: 0.0
[1]; [11]
  herbicidal effect rating, ECHORC: 0.0
[1]; [12]
  herbicidal effect rating, ECHORC: 0.0
[1]; [13]
  herbicidal effect rating, ECHORC: 4.0
[1]; [14]
  herbicidal effect rating, ECHORC: 4.0
[2]; [10]
  herbicidal effect rating, SAGPY: 4.0
[2]; [11]
  herbicidal effect rating, SAGPY: 4.0
[2]; [12]
  herbicidal effect rating, SAGPY: 5.0
[2]; [13]
  herbicidal effect rating, SAGPY: 5.0
[2]; [14]
  herbicidal effect rating, SAGPY: 5.0
[3]; Rate 0.0320 kg/ha
  herbicidal effect rating ORYSAT: 0.0
[3]; Rate 0.0620 kg/ha
  herbicidal effect rating ORYSAT: 0.0
[3]; Rate 0.1250 kg/ha
  herbicidal effect rating ORYSAT: 4.0
[3]; Rate 0.2500 kg/ha
  herbicidal effect rating ORYSAT: 5.0
[3]; Rate 0.5000 kg/ha
  herbicidal effect rating ORYSAT: 3.0
[4]; [10]
  herbicidal effect rating, CYPIR: 0.0
[4]; [11]
  herbicidal effect rating, CYPIR: 0.0
[4]; [12]
  herbicidal effect rating, CYPIR: 0.0
[4]; [13]
  herbicidal effect rating, CYPIR: 6.0
[4]; [14]
  herbicidal effect rating, CYPIR: 6.0
[5]; [10]
  herbicidal effect rating, MOOVA: 9.0
[5]; [11]
  herbicidal effect rating, MOOVA: 9.0
[5]; [12]
  herbicidal effect rating, MOOVA: 9.0
[5]; [13]
  herbicidal effect rating, MOOVA: 9.0
[5]; [14]
  herbicidal effect rating, MOOVA: 9.0
